Results on 21 molecules are retold here after PubChem BioAssay AID298 (DTP/NCI, 2004).

The subject of the experiment is MX-1 breast xenograft, intrarenal, nude mice, tumor weight. The experiment is described as follows: NCI In Vivo Anticancer Drug Screen. Data for tumor model Human Mammary Carcinoma MX-1 Xenograft (intrarenal inoculation) in NU/NU BALB/C (nude) mice. Conditions: endpoint: mean tumor weight change, higher = larger tumour. The gist of the method:
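Antitumor activity is expressed as a T/C ratio. The treated group's tumor size or survival is compared against the vehicle-treated control group in mice bearing transplanted tumors.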
For orientation: Xenograft models place foreign cells or tissue in a host animal.

Where [1] appears, read: dose: 300.0 mg/kg/injection, schedule: Q04DX003 (sc), vehicle: saline.
The mark [2] stands for this setting: dose: 600.0 mg/kg/injection, schedule: Q04DX003 (sc), vehicle: saline.
The mark [3] stands for this setting: dose: 1200.0 mg/kg/injection, schedule: Q04DX003 (sc), vehicle: saline.
[4] abbreviates: dose: 12.5 mg/kg/injection, schedule: Q04DX003 (sc), vehicle: saline.
The mark [5] stands for this setting: dose: 50.0 mg/kg/injection, schedule: Q04DX003 (sc), vehicle: saline.
The mark [6] stands for this setting: dose: 37.5 mg/kg/injection, schedule: Q04DX003 (ip), vehicle: Klucel (hydroxypropylcellulose) (HPC).
[7] abbreviates: dose: 75.0 mg/kg/injection, schedule: Q04DX003 (ip), vehicle: Klucel (hydroxypropylcellulose) (HPC).
Setting [8] is: dose: 150.0 mg/kg/injection, schedule: Q04DX003 (ip), vehicle: Klucel (hydroxypropylcellulose) (HPC).
The mark [9] stands for this setting: dose: 100.0 mg/kg/injection, schedule: Q04DX003 (ip), vehicle: saline with Tween-80.
The mark [10] stands for this setting: dose: 200.0 mg/kg/injection, schedule: Q04DX003 (ip), vehicle: saline with Tween-80.
The mark [11] stands for this setting: dose: 50.0 mg/kg/injection, schedule: Q04DX003 (ip), vehicle: saline with Tween-80.

Molecules are shown by their SMILES. Several values for one entry are separate records, joined by “and”; a condition that tells them apart may be missing. Equal values may be shown once. Inconclusive results are not listed.

As to `O=NNc1cnccn1`, the T/C is 53 % of control and 74 % of control (dose: 12.5 mg/kg/injection, schedule: Q04DX003 (ip), vehicle: water); 26 % of control (2×) and 41 % of control (dose: 25.0 mg/kg/injection, schedule: Q04DX003 (ip), vehicle: water); 7 % of control and 8 % of control and 16 % of control (dose: 50.0 mg/kg/injection, schedule: Q04DX003 (ip), vehicle: water).

Turning to `COc1cc2c(ccc3c4cc(OC)c(OC)cc4c[n+](C)c23)cc1O`, the T/C (dose: 150.0 mg/kg/injection, schedule: Q04DX003 (sc), vehicle: saline) was 83 % of control; the T/C under setting [1] was 74 % of control; the T/C under setting [2] was 79 % of control; the T/C under setting [3] is 68 % of control.

In the case of `OC1(CSc2ccccc2)CCCCC1`, the T/C runs as follows: (dose: 300.0 mg/kg/injection, schedule: Q04DX003 (sc), vehicle: saline with Tween-80) 98 % of control; (dose: 600.0 mg/kg/injection, schedule: Q04DX003 (sc), vehicle: saline with Tween-80) 112 % of control.

In the case of `CCc1nc(N)nc(N)c1-c1ccc(Cl)c([N+](=O)[O-])c1`, the T/C (dose: 18.75 mg/kg/injection, schedule: Q04DX003 (sc), vehicle: saline with Tween-80) was 99 % of control; the T/C (dose: 37.5 mg/kg/injection, schedule: Q04DX003 (sc), vehicle: saline with Tween-80) is 71 % of control; the T/C (dose: 75.0 mg/kg/injection, schedule: Q04DX003 (sc), vehicle: saline with Tween-80) is 82 % of control.

With `COc1cccc2c1C(=O)c1c(O)c3c(c(O)c1C2=O)C[C@@](O)(/C(C)=N\O)C[C@@H]3OC1CC(N)C(O)C(C)O1` (stereo partly drawn), the T/C was 64 % of control under setting [4]; 58 % of control (dose: 25.0 mg/kg/injection, schedule: Q04DX003 (sc), vehicle: saline); 23 % of control under setting [5].

In the case of `Nc1c(/C=C/c2cc3cc(C4=NCCN4)ccc3o2)[nH]c2cc(C3=NCCN3)ccc12`, the T/C under setting [6] was 80 % of control, the T/C under setting [7] is 103 % of control and the T/C under setting [8] was 40 % of control.

For `[Cl][Pt+2][Cl].[NH-]C1CCC1.[NH2-]`, the T/C runs as follows: (dose: 6.25 mg/kg/injection, schedule: Q04DX003 (sc), vehicle: saline) -94 % of control; under setting [4], -97 % of control.

Regarding `Nc1ncnc2c1c1c(=O)[nH]c(=O)[nH]c1n2C1OC(CO)C(O)C1O` (stereo not drawn), the T/C is 62 % of control (dose: 112.5 mg/kg/injection, schedule: Q04DX003 (sc), vehicle: distilled water + Tween-80); 63 % of control (dose: 225.0 mg/kg/injection, schedule: Q04DX003 (sc), vehicle: distilled water + Tween-80); 31 % of control (dose: 450.0 mg/kg/injection, schedule: Q04DX003 (sc), vehicle: distilled water + Tween-80); 25 % of control (dose: 900.0 mg/kg/injection, schedule: Q04DX003 (sc), vehicle: distilled water + Tween-80).

With `Cc1ccc2c(c1)C1(SC(C)C(=O)N1c1ccc(Cl)cc1)C(=O)N2` (stereo not drawn), the T/C runs as follows: under setting [9], 107 % of control; under setting [10], 85 % of control; (dose: 800.0 mg/kg/injection, schedule: Q04DX003 (ip), vehicle: saline with Tween-80) 72 % of control.

In the case of `Nc1ccn([C@@H](C=O)O[C@@H](C=O)CO)c(=O)n1`, the T/C was 70 % of control under setting [5]; 14 % of control (dose: 100.0 mg/kg/injection, schedule: Q04DX003 (sc), vehicle: saline); -85 % of control (dose: 200.0 mg/kg/injection, schedule: Q04DX003 (sc), vehicle: saline).

Regarding `CCOC(=O)Nc1cc(NC(C)/C(=N/O)c2ccccc2)c([N+](=O)[O-])c(N)n1` (stereo not drawn), the T/C (dose: 18.75 mg/kg/injection, schedule: Q04DX003 (ip), vehicle: Klucel (hydroxypropylcellulose) (HPC)) was 84 % of control; the T/C under setting [6] is 60 % of control; the T/C under setting [7] is 72 % of control.

Take `O=NNc1ccc(Cl)cn1`: the T/C is, setting by setting: (dose: 4.7 mg/kg/injection, schedule: Q04DX003 (ip), vehicle: water) 60 % of control; (dose: 9.4 mg/kg/injection, schedule: Q04DX003 (ip), vehicle: water) 59 % of control; (dose: 18.7 mg/kg/injection, schedule: Q04DX003 (ip), vehicle: water) 29 % of control; (dose: 37.5 mg/kg/injection, schedule: Q04DX003 (ip), vehicle: water) 4 % of control.

With `CCOC(=O)NC1=C(N2CC2)C(=O)C(NC(=O)OCC)=C(N2CC2)C1=O`, the T/C runs as follows: (dose: 1.56 mg/kg/injection, schedule: Q01DX010 (sc), vehicle: saline) 45 % of control; (dose: 3.13 mg/kg/injection, schedule: Q01DX010 (sc), vehicle: saline) 13 % of control; (dose: 6.25 mg/kg/injection, schedule: Q01DX010 (sc), vehicle: saline) -75 % of control.

Regarding `CC(/C=N/N=C(N)N)=N\N=C(N)N`, the T/C (dose: 25.0 mg/kg/injection, schedule: Q01DX010 (sc), vehicle: water) was 167 % of control; the T/C (dose: 50.0 mg/kg/injection, schedule: Q01DX010 (sc), vehicle: water) was 73 % of control; the T/C (dose: 100.0 mg/kg/injection, schedule: Q01DX010 (sc), vehicle: water) was 43 % of control.

Regarding `O=c1[nH]cnc2c1cnn2CN1CCOCC1`, the T/C is 96 % of control under setting [8] and 65 % of control (dose: 300.0 mg/kg/injection, schedule: Q04DX003 (ip), vehicle: Klucel (hydroxypropylcellulose) (HPC)).

As for `CC1[C@@H]2CC=C3[C@H]4CCC5Cc6nc7c(nc6C[C@@]5(C)C4CC(=O)[C@]32CO[C@]12OC(C)(C)CC2O)CC1CC[C@@H]2C3=C[C@H]4O[C@@]5(O[C@@](C)(CO)C[C@@H]5O)C(C)[C@@]4(O)[C@]3(C)[C@@H](O)CC2[C@]1(C)C7` (stereo partly drawn), the T/C by setting is: (dose: 12.5 micrograms/kg/injection, schedule: Q04DX003 (ip), vehicle: saline + alcohol) 123 % of control; (dose: 25.0 micrograms/kg/injection, schedule: Q04DX003 (ip), vehicle: saline + alcohol) 78 % of control; (dose: 50.0 micrograms/kg/injection, schedule: Q04DX003 (ip), vehicle: saline + alcohol) 118 % of control; (dose: 100.0 micrograms/kg/injection, schedule: Q04DX003 (ip), vehicle: saline + alcohol) 100 % of control.

As for `COc1cc(Cc2nccc3cc(OC)c(OC)cc23)c(C(C)=O)cc1OC`, the T/C was 54 % of control under setting [1], 68 % of control under setting [2] and 48 % of control under setting [3].

Regarding `COc1cc(C(CC(C)=O)c2cc3c(cc2OC(C)=O)OCO3)cc(OC)c1OC` (stereo not drawn) (tested in a mixture with another compound), the T/C under setting [11] is 59 % of control; the T/C (dose: 72.0 mg/kg/injection, schedule: Q04DX003 (ip), vehicle: saline with Tween-80) was 103 % of control; the T/C under setting [9] was 34 % of control; the T/C (dose: 120.0 mg/kg/injection, schedule: Q04DX003 (ip), vehicle: saline with Tween-80) is 110 % of control; the T/C under setting [10] is 19 % of control and 20 % of control.

As for `CO[C@@]12[C@@H]3N[C@@H]3CN1C1=C(C(=O)C(NCCc3ccccn3)=C(C)C1=O)[C@@H]2COC(N)=O`, the T/C reads like this: (dose: 6.25 mg/kg/injection, schedule: Q04DX003 (ip), vehicle: saline with Tween-80) -51 % of control; (dose: 12.5 mg/kg/injection, schedule: Q04DX003 (ip), vehicle: saline with Tween-80) -84 % of control; (dose: 25.0 mg/kg/injection, schedule: Q04DX003 (ip), vehicle: saline with Tween-80) -92 % of control; under setting [11], -42 % of control.

Consider `O=S(=O)(CCl)OCCCl`, for which the T/C is 90 % of control (dose: 25.0 mg/kg/injection, schedule: Q04DX003 (sc), vehicle: saline with Tween-80); 113 % of control (dose: 50.0 mg/kg/injection, schedule: Q04DX003 (sc), vehicle: saline with Tween-80); 95 % of control (dose: 100.0 mg/kg/injection, schedule: Q04DX003 (sc), vehicle: saline with Tween-80).

For `COc1ccc2ccccc2c1C1NC(=O)c2ccccc2N1` (stereo not drawn), the T/C by setting is: (dose: 300.0 mg/kg/injection, schedule: Q04DX003 (sc), vehicle: Klucel (hydroxypropylcellulose) (HPC)) 79 % of control; (dose: 600.0 mg/kg/injection, schedule: Q04DX003 (sc), vehicle: Klucel (hydroxypropylcellulose) (HPC)) 104 % of control; (dose: 1200.0 mg/kg/injection, schedule: Q04DX003 (sc), vehicle: Klucel (hydroxypropylcellulose) (HPC)) 90 % of control; (dose: 2400.0 mg/kg/injection, schedule: Q04DX003 (sc), vehicle: Klucel (hydroxypropylcellulose) (HPC)) 63 % of control.
